Measurements: PMC4955970, “Stable, synthetic analogs of diadenosine tetraphosphate inhibit rat and human P2X3 receptors and inflammatory pain” (Molecular Pain, 2016)
Where “and” joins values, the source holds several entries; their conditions need not be identical. Equal entries are not always repeated. Where two headings read alike, the source gives them in different places. Each block holds one compound with its values, some of them ahead of it.

Legend:
[1] = biological target: T1, rat homomeric P2X3 receptors (Rattus norvegicus, UniProt P49654); assay: Whole-cell patch clamp on HEK293 cells expressing rat homomeric P2X3R (activation and HAD inhibition of α,β-meATP test pulses); assay type: cell-based; conditions: for nH of activation curve: partial agonist dose-response
T1 construct: transfected with rat or human full-length P2X3 cDNA subcloned into pIRES2-EGFP; expressed in transfected cells; host or cells: HEK293T (HEK293 in the results)
T1 sequence (P49654 1-397): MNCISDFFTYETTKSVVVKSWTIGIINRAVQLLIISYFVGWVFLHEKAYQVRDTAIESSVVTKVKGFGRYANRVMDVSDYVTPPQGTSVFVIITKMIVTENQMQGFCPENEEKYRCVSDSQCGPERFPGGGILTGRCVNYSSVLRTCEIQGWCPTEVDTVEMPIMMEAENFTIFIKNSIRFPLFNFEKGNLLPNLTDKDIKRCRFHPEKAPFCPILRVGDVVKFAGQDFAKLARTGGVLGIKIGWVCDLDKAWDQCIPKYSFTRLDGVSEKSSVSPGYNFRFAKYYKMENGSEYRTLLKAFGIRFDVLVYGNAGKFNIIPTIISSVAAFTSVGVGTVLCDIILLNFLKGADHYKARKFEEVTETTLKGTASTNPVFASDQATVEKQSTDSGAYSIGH
Experimental: Rat trigeminal, nodose, or dorsal root ganglion (TG, NG, and DRG, respectivley) neurons in culture were prepared as described previously.[46],[47] Neurons were plated on poly-L-lysine (0.2 mg/ml)-coated Petri dishes and cultured for one to two days under an atmosphere containing 5% CO2. Cells were used within two days of plating when they lacked processes. HEK293T cells were prepared as reported previously[32],[48] and transfected with rat or human full-length P2X3 cDNA subcloned into pIRES2-EGFP (Clontech, Mountain View, CA, USA).
TG, NG, DRG, or HEK cells were recorded in the whole-cell configuration while being continuously superfused (at 2 ml/min) with control solution containing (in mM): 152 NaCl, 5 KCl, 1 MgCl2, 2 CaCl2, 10 glucose, and 10 HEPES; pH was adjusted to 7.4 with NaOH and osmolarity was adjusted to 320 mOsM with glucose. […] Responses to selective P2X3R agonist α,β-methylene-ATP (α,β-meATP; resistant to ectoATPase hydrolysis, Sigma-Aldrich) were measured using an EPC-9 amplifier operated by HEKA Patch Master software (HEKA Electronik, Germany). Cells were voltage-clamped at −70 mV. In most cells, series resistance was compensated by 80%. To determine EC50 values, dose-response curves were constructed for α,β-meATP by administering different agonist doses same cells and fitting data to a logistic equation (Origin 8.0, Microcal, Northampton, MA).
Agonists and antagonists were applied (usually for 2 s) via a rapid superfusion system (Rapid Solution Changer RSC-200; BioLogic Science Instruments, Grenoble, France) placed 100 to 150 µm near the cell. The time for the solution exchange across the cell was approximately 30 ms, as judged with liquid junction potential measurements. All chemicals, including enzymes for cell culture, were from Sigma-Aldrich (St. Louis, MO). Culture media were obtained from Invitrogen (Milan, Italy).
The peak amplitudes of the responses were measured using HEKA Patch Master software. For each agonist, dose-response plots were constructed by normalizing data with respect to the maximum response. All data are presented as mean ± SEM (n = the number of cells) with statistical significance assessed by paired t-test (for parametric data) or Mann-Whitney rank-sum test (for nonparametric data). Best fits of data with a sigmoid function were compared with respective control fits using Origin 8.0 software. A value of p < 0.05 was accepted as indicative of statistically significant difference.
Figure 2. Activation and inhibition of rat P2X3 receptors by AppNHppA. Top: Experimental protocol. Test pulses of 10 µM of α,β-meATP were delivered every 2 min. After two control pulses, AppNHppA at different concentrations was applied for 6 min. Example traces of P2X3R-mediated currents in control and after 2 min application of 10 nM (a) and 3 μM (b) of AppNHppA (corresponding to the part of the experimental protocol outlined by a dotted box). (c) The time course of the current inhibition by AppNHppA at different (1 nM–3 μM) concentrations (n = 4–6). Current amplitudes are normalized to control. (d) Dose-response curves for the activation and inhibition of P2X3-mediated currents by AppNHppA.

[2] = tested on: formalin-induced nociceptive behavior; assay: Formalin test (spontaneous jerking of the injected hindpaw); assay type: in vivo, rat; conditions: for in vivo IC50 per animal body weight: calculated from effective concentrations in formalin model; for IC50: locally administered concentration, coinjection with formalin
Experimental: All animal experiments were carried out in accordance with the “Guide for the Care and Use of Laboratory Animals” as adopted by the Bogomoletz Institute of Physiology Clinic of Animal Care and Use. The formalin test experiments were performed on 21-day-old male Wistar rats, weighing 40 ± 5 g according to the method described previously.[49],[50] Briefly, animal was acclimated to an acrylic observation chamber for at least 1 h before the injection of formalin (50 µl of 0.5% solution in 0.9% saline) into the dorsal surface of the right hindpaw. Immediately after the injection, each animal was returned to the observation chamber and its behavioral characteristics were recorded for 45 min. We noticed consistently observed type of response: spontaneous jerking of the injected paw. The number of jerks was measured for each 1-min block, using self-developed computer software.
Figure 8. Effects of subcutaneous Ap4A analogs on pain responses induced by intraplantar (right hindpaw) formalin injection. Rats were subcutaneously injected with formalin solution alone (0.5%, 50 µl, control) or coinjected with the formalin solution and solutions with AppCH2ppA (1 µM–100 µM, 100 µl) or AppNHppA (0.1 µM–100 µM, 100 µl). Age-matched control animals were injected with saline. (a) Time course of the effects of subcutaneous AppCH2ppA (left) and AppNHppA (right) on the number of the spontaneous jerkings of the injected paw. (b) Bar graphs of the effects of AppCH2ppA (b, c) and AppNHppA (d, e) on the integral number of spontaneous jerkings. Measurements were made during the acute phase (0–6 min) and tonic phase (7–45 min) of the formalin response. (f) Dose-response curves for AppCH2ppA (left) and AppNHppA (right) during tonic and acute phases. For each concentration 6–7 rats were used.

depression of P2X3R currents at high rate of activation ([1]; 1 µM, α,β-meATP pulses every 30 s): 81 ± 3%
depression of P2X3R currents at low rate of activation ([1]; 1 µM, α,β-meATP pulses every 2 min): 61.3 ± 5%
IC50 ([1]; 6 min after drug application, test pulse 10 µM α,β-meATP, read-out: IC50 of HAD inhibition of P2X3R currents): 0.55 ± 0.2 µM
EC50 ([1]; HEK293 rat P2X3R, read-out: EC50 of partial agonist P2X3R activation): 9.3 ± 1.7 µM
nH of activation curve [1]: 2.27 ± 0.56
IC50 ([2]; acute phase, read-out: IC50 in the acute phase of formalin test): 34.7 ± 13.2 µM
IC50 ([2]; tonic phase 7–45 min, read-out: IC50 in the tonic phase of formalin test): 0.29 ± 0.05 µM
Structure (SMILES): Nc1ncnc2c1ncn2[C@@H]1O[C@H](COP(=O)(O)OP(=O)(O)CP(=O)(O)OP(=O)(O)OC[C@H]2O[C@@H](n3cnc4c(N)ncnc43)C(O)C2O)C(O)C1O (stereo partly drawn) [AppCH2ppA, diadenosine 5′,5′′′-P^1,P^4-(β,γ-methylene)tetraphosphate]
in vivo IC50 per animal body weight [2]: 0.72 nmol/kg and 0.61 µg/kg

IC50 [1]: 0.2 ± 0.04 µM
amplitude of α,β-meATP test response after application ([1]; 10 nM, test pulse 10 µM α,β-meATP, 2-min interval): almost unchanged
reduction of α,β-meATP test responses (HAD effect) ([1]; 100 nM, below activation threshold): 38.2 ± 8.5%
inhibition of α,β-meATP test responses (HAD effect) ([1]; 3 µM, test pulse 10 µM α,β-meATP, 2-min interval): complete inhibition
induction of membrane currents ([1]; 0.1 or 1 µM, HEK293 rat homomeric P2X3R): not to induce membrane currents
EC50 ([1]; EC50 of activation (summary restatement), rat P2X3R, summary statement): 41 µM
EC50 ([1]; EC50 of partial agonist P2X3R activation, HEK293 rat P2X3R): 41.6 ± 1.3 µM
inhibitory action in presence of G-protein inhibitor GDP-β-S ([1]; GDP-β-S 500 µM introduced into cells): remained unchanged
inhibition at 1 µM ([1]; HEK293, read-out: inhibitory action on P2X3 receptors with GDP-β-S in intracellular solution): 23.9 ± 5.24%
inhibition at 1 µM ([1]; HEK293, read-out: inhibitory action on P2X3 receptors with GTP in intracellular solution): 23.4 ± 2.01%
agonist type at homomeric P2X3Rs ([1]; compared with full agonist α,β-meATP): only a partial agonist
nH of activation curve [1]: 1.58 ± 0.05
EC50/IC50 ratio (activation/inhibition index) ([1]; rat P2X3R): 205
current response relative to response induced by 10 µM α,β-meATP ([1]; saturating 1 mM, same cell): 41.2 ± 13%
IC50 ([2]; Rattus norvegicus, acute phase, read-out: IC50 in the acute phase of formalin test): > 100 µM
IC50 ([2]; Rattus norvegicus, tonic phase 7–45 min, read-out: IC50 in the tonic phase of formalin test): 0.11 ± 0.02 µM
Structure (SMILES): Nc1ncnc2c1ncn2[C@@H]1O[C@H](COP(=O)(O)OP(=O)(O)NP(=O)(O)OP(=O)(O)OC[C@H]2O[C@@H](n3cnc4c(N)ncnc43)[C@H](O)[C@@H]2O)[C@@H](O)[C@H]1O [AppNHppA, diadenosine 5′,5′′′-P^1,P^4-(β,γ-imido)tetraphosphate]
currents generated ([1]; 10 or 100 µM, HEK293 rat homomeric P2X3R): small and slowly desensitizing currents
in vivo IC50 per animal body weight [2]: 0.28 nmol/kg and 0.23 µg/kg
